For one assay, the target named is T1, human CYP11B1 (Homo sapiens, UniProt P15538).
T1 construct: The expression plasmids contains the ORF for either human/cyno CYP11B1 or CYP11B2; expressed in transfected cells
T1 sequence (P15538 25-503): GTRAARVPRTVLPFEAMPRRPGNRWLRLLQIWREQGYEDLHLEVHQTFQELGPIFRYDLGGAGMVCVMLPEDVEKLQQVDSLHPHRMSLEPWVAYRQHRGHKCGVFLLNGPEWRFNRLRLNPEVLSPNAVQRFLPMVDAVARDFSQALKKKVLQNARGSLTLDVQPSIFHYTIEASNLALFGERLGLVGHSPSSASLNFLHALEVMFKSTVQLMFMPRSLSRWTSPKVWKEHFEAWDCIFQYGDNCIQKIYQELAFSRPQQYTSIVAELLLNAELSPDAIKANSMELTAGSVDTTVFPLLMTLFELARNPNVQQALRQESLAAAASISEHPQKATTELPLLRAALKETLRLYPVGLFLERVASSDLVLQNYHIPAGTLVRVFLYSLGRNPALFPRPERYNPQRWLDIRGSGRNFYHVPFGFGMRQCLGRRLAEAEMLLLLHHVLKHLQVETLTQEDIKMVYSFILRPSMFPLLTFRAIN
Description: G-402 cellular enzyme assay, human CYP11B1 (cortisol release, HTRF). The class given is cell-based. Particulars: G-402 cells, 1 μM Deoxycortisol. An excerpt: Herein we identified the use of the G-402 cell line as a host cell to ectopically express (transiently or stably) enzymes of the CYP11 family. Specifically we developed stable G-402 cells expressing ectopically human CYP11B1, human CYP11B2, human CYP11A1, cynmolgus CYP11B1 or cynomolgus CYP11B2 enzyme activity. Importantly the identified cell line G-402 expresses co-factors (adrenodoxin and adrenodoxin reductase) important for the activity of the CYP11 family and no relevant enzyme activity of the CYP11 family (in comparison to H295R cells) was detected in these cells. Therefore the G-402 cell line is uniquely suited as a host cell for the ectopic expression of enzymes from the CYP11 family.
G-402 cells can be obtained from ATCC (CRL-1440) and were originally derived from a renal leiomyoblastoma.
The expression plasmids contains the ORF for either human/cyno CYP11B1 or CYP11B2 under the control of a suitable promoter (CMV-promoter) and a suitable resistance marker (neomycin). […] Individual cell-clones are then selected and assessed for displaying the desired enzymatic activity using 11-Deoxycorticosterone (Cyp11B2) or 11-Deoxycortisol (Cyp11B1) as a substrate. […]
[formula] wherein, A is the maximum y value, B is the EC50 factor determined using XLFit, C is the minimum y value and D is the slope value. […]
A general note: Time-resolved FRET reads energy transfer from a long-lived donor to a nearby acceptor.

For assay [1], the system named is rat model of chronic kidney disease. Conditions: cited from earlier work; for plasma aldosterone: FAD286: 4 weeks of treatment, spironolactone: 4 and 8 weeks of treatment; for angiotensin II and salt-stimulated PAI-1 mRNA expression in the aorta and the heart / renal effects of angiotensin II and high salt (albuminuria, azotemia, renovascular hypertrophy, glomerular injury, PAI-1, osteopontin mRNA, tubulointerstitial fibrosis): rat, in vivo.

Assay [2] relates to rats with experimental heart failure. Particulars: rat, in vivo; cited from earlier work.
The test system of assay [3] is patients with primary aldosteronism. Particulars: cited from earlier work.

Here are results for four compounds from patent publication US9790200B2, “Dihydroquinoline pyrazolyl compounds” (Hoffmann-La Roche Inc., priority 2015, dated 2017).

For the compound `CN1C(=O)CCc2c1ccc(-c1n[nH]cc1COC1CN(C(=O)c3cnn(C)c3)C1)c2F` [Example 66, 5-Fluoro-1-methyl-6-[4-[[1-(1-methylpyrazole-4-carbonyl)azetidin-3-yl]oxymethyl]-1H-pyrazol-3-yl]-3,4-dihydroquinolin-2-one], the EC50 on human CYP11B1 is over 30 nM.

As for `N#Cc1ccc(C2CCCc3cncn32)cc1` (centres unmarked) [FAD286], in assay [1], the plasma aldosterone entry was “reduced”; the “angiotensin II and salt-stimulated PAI-1 mRNA expression in the aorta and the heart” value is listed as “not”; the “renal effects of angiotensin II and high salt (albuminuria, azotemia, renovascular hypertrophy, glomerular injury, PAI-1, osteopontin mRNA, tubulointerstitial fibrosis)” value is recorded as “prevented these renal effects”. In assay [2], the “blood pressure and cardiovascular function and structure” value is “improved”.

Regarding `N#Cc1ccc([C@H]2CCc3cncn32)c(F)c1` [LCI699], in assay [3] (human, in vivo), the blood pressure entry is given as “mildly decreased” and the hypokalemia result is recorded as “corrected”. Further, the circulating aldosterone levels result in assay [3] (orally active) is “significantly lower”.

Regarding `CC(=O)S[C@@H]1CC2=CC(=O)CC[C@]2(C)[C@H]2CC[C@@]3(C)[C@@H](CC[C@@]34CCC(=O)O4)[C@H]12` [spironolactone], in assay [1], the plasma aldosterone result was “increased”; the “angiotensin II and salt-stimulated PAI-1 mRNA expression in the aorta and the heart” value was “enhanced”; the “renal effects of angiotensin II and high salt (albuminuria, azotemia, renovascular hypertrophy, glomerular injury, PAI-1, osteopontin mRNA, tubulointerstitial fibrosis)” value was “prevented these renal effects”.

What is called EC50 is the concentration at which the effect is half-maximal. High values mean lower potency in that assay, low ones higher potency in that assay.
